Columns and labels:
AtYUC6 (YUC6) [1] = target: T1, AtYUC6 (YUC6) (Arabidopsis thaliana, UniProt Q8VZ59); experiment: competition with photoaffinity probe labelling; type: binding; settings: active site
T1 construct: purified recombinant
T1 sequence (Q8VZ59 1-417): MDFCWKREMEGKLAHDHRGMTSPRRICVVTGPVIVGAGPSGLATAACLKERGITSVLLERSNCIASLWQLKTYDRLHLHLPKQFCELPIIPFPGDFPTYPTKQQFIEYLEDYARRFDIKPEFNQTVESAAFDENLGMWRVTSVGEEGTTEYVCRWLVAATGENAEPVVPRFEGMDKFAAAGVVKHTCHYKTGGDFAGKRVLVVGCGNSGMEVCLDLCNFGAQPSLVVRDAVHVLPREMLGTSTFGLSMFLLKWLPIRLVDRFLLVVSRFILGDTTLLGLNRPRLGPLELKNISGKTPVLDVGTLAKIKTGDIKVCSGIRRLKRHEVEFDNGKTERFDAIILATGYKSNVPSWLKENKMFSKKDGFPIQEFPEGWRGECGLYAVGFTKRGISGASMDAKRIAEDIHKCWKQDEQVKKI

[2] = target: T2, AtYUC1 (AtYUC1-His, YUC1) (Arabidopsis thaliana, UniProt Q9SZY8); experiment: LC-MS/MS of IAA formed from IPA; type: biochemical; settings: 20 µM IPA, 40 µM FAD, 1 mM NADPH, 10 mM Tris-HCl pH 7.5, 35 °C, 30 min
T2 construct: recombinant His-tagged, pET-53-DEST, E. coli BL21 Star (DE3), TALON purified, tag kept
T2 sequence (Q9SZY8 1-414): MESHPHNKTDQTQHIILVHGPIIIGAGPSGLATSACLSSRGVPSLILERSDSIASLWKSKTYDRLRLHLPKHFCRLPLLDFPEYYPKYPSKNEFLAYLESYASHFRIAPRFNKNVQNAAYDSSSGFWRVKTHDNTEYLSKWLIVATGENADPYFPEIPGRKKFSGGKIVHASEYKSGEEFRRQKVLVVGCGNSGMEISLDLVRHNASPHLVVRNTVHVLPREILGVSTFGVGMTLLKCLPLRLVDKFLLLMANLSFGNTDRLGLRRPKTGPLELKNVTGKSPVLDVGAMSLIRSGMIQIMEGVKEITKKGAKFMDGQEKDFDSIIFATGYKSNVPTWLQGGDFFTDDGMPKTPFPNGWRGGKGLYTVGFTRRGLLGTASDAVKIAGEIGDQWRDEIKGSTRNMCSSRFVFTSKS

AtYUC6 (YUC6) [3] = target: T1, AtYUC6 (YUC6); experiment: photoaffinity labelling, Staudinger-Bertozzi ligation to fluorescent phosphine, SDS-PAGE; type: binding; settings: 20 µM probe, 254 nm UV, on ice, 10 mM phosphate buffer; active site, competitive with IPA and PPA; covalent; labelled compound

Q: How did the “competition with photoaffinity probe labelling” value (AtYUC6 (YUC6) [1]; 200 µM IPA against 20 µM probe) turn out when `O=C(O)C(=O)Cc1c[nH]c2ccccc12` [IPA] was run?
A: The fluorescent signal disappeared when the probe was photoactivated in the presence of the substrates

Q: How did the “competition with photoaffinity probe labelling” value (AtYUC6 (YUC6) [1]; 200 µM PPA against 20 µM probe) turn out when `O=C(O)C(=O)Cc1ccccc1` [PPA] was run?
A: The fluorescent signal disappeared when the probe was photoactivated in the presence of the substrates

Q: How did the “enzyme activity at 1 or 10 μM inhibitor” value [2] turn out when `Fc1cccc(F)c1-c1n[nH]c(=S)[nH]1` [compound 1, 5-[2,6-difluorophenyl]-2,4-dihydro-[1,2,4]-triazole-3-thione] was run?
A: we measured the inhibitory activity of YDF on the recombinant AtYUC1 enzyme

Q: How did the “photoaffinity labelling, Staudinger-Bertozzi ligation to fluorescent phosphine,” value (AtYUC6 (YUC6) [3]) turn out when `[N-]=[N+]=NCc1cc(N=[N+]=[N-])cc(-c2n[nH]c(=S)[nH]2)c1` [photoaffinity yucasin probe] was run?
A: A fluorescent signal from the photoaffinity-labeled probe of YUC6 was detected

Q: `S=c1[nH]nc(-c2ccc(Cl)cc2)[nH]1` [yucasin, 5-[4-chlorophenyl]-2,4-dihydro-[1,2,4]-triazole-3-thione] was tested. Which “enzyme activity at 1 or 10 μM inhibitor” value [2] did it give?
A: Yucasin inhibited the recombinant YUC1 enzyme activity more potent than YDF

From article PMC5656596, “Yucasin DF, a potent and persistent inhibitor of auxin biosynthesis in plants” (Scientific Reports, 2017)
